Laboratory results taken from the supplement of paper PMC10307832.

Assays:
Test in all cases: relative viability (nuclei count vs DMSO), 5 days (fraction); higher = more cells survive
NCI-H1437 = tested on: NCI-H1437
Procedure, shortened: (§1)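 Relative viability is defined as nuclei in treated wells over nuclei in vehicle wells. Duplicate plates were run and medians reported. Lung cancer cell lines in 1536-well plates were dosed by pin tool one day after seeding, with one drug or with a fixed anchor-drug dose plus five library-drug doses (not always all listed) in √10 steps, and nuclei were counted after 5 days.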

CAL-12T = tested on: CAL-12T
Procedure, shortened: as §1

NCI-H647 = tested on: NCI-H647
Procedure, shortened: as §1

NCI-H596 = tested on: NCI-H596
Procedure, shortened: as §1

201T = tested on: 201T
Procedure, shortened: as §1

HCC-44 = tested on: HCC-44
Procedure, shortened: as §1

COR-L 105 = tested on: COR-L 105
Procedure, shortened: as §1

EPLC-272H = tested on: EPLC-272H
Procedure, shortened: as §1

NCI-H441 = tested on: NCI-H441
Procedure, shortened: as §1

HCC-827 = tested on: HCC-827
Procedure, shortened: as §1

NCI-H522 = tested on: NCI-H522
Procedure, shortened: as §1

PC-3 [JPC-3] = tested on: PC-3 [JPC-3]
Procedure, shortened: as §1

NCI-H1755 = tested on: NCI-H1755
Procedure, shortened: as §1

NCI-H520 = tested on: NCI-H520
Procedure, shortened: as §1

HCC-15 = tested on: HCC-15
Procedure, shortened: as §1

HOP-62 = tested on: HOP-62
Procedure, shortened: as §1

NCI-H1793 = tested on: NCI-H1793
Procedure, shortened: as §1

NCI-H1355 = tested on: NCI-H1355
Procedure, shortened: as §1

H3255 = tested on: H3255
Procedure, shortened: as §1

EKVX = tested on: EKVX
Procedure, shortened: as §1

NCI-H322M = tested on: NCI-H322M
Procedure, shortened: as §1

LCLC-103H = tested on: LCLC-103H
Procedure, shortened: as §1

UMC-11 = tested on: UMC-11
Procedure, shortened: as §1

SK-LU-1 = tested on: SK-LU-1
Procedure, shortened: as §1

NCI-H2009 = tested on: NCI-H2009
Procedure, shortened: as §1

Structure (SMILES): Nc1cccc2c1CN(C1CCC(=O)NC1=O)C2=O (stereo not drawn) [Lenalidomide] + O=C(c1cc(Cc2n[nH]c(=O)c3ccccc23)ccc1F)N1CCN(C(=O)C2CC2)CC1 [Olaparib] (partner 8 µM)
- relative viability (NCI-H1437; first compound 0.253 µM): 0.612
- relative viability (NCI-H1437; first compound 0.8 µM): 0.629
- relative viability (NCI-H1437; first compound 2.53 µM): 0.638
- relative viability (NCI-H1437; first compound 8 µM): 0.677
- relative viability (CAL-12T; first compound 0.253 µM): 0.807
- relative viability (CAL-12T; first compound 0.8 µM): 0.729
- relative viability (CAL-12T; first compound 2.53 µM): 0.757
- relative viability (CAL-12T; first compound 8 µM): 0.941
- relative viability (NCI-H647; first compound 0.253 µM): 0.525
- relative viability (NCI-H647; first compound 0.8 µM): 0.543
- relative viability (NCI-H647; first compound 2.53 µM): 0.65
- relative viability (NCI-H647; first compound 8 µM): 0.566
- relative viability (NCI-H596; first compound 0.253 µM): 0.758
- relative viability (NCI-H596; first compound 0.8 µM): 0.705
- relative viability (NCI-H596; first compound 2.53 µM): 0.77
- relative viability (NCI-H596; first compound 8 µM): 0.77
- relative viability (201T; first compound 0.253 µM): 0.847
- relative viability (201T; first compound 0.8 µM): 0.865
- relative viability (201T; first compound 2.53 µM): 0.864
- relative viability (201T; first compound 8 µM): 0.92
- relative viability (HCC-44; first compound 0.253 µM): 0.981
- relative viability (HCC-44; first compound 0.8 µM): 0.873
- relative viability (HCC-44; first compound 2.53 µM): 1.02
- relative viability (HCC-44; first compound 8 µM): 1.05
- relative viability (COR-L 105; first compound 0.253 µM): 0.737
- relative viability (COR-L 105; first compound 0.8 µM): 0.712
- relative viability (COR-L 105; first compound 2.53 µM): 0.748
- relative viability (COR-L 105; first compound 8 µM): 0.774
- relative viability (EPLC-272H; first compound 0.253 µM): 0.777
- relative viability (EPLC-272H; first compound 2.53 µM): 0.613
- relative viability (EPLC-272H; first compound 8 µM): 0.657
- relative viability (NCI-H441; first compound 0.253 µM): 0.471
- relative viability (NCI-H441; first compound 0.8 µM): 0.502
- relative viability (NCI-H441; first compound 2.53 µM): 0.625
- relative viability (NCI-H441; first compound 8 µM): 0.577
- relative viability (HCC-827; first compound 0.253 µM): 0.633
- relative viability (HCC-827; first compound 0.8 µM): 0.57
- relative viability (HCC-827; first compound 2.53 µM): 0.668
- relative viability (HCC-827; first compound 8 µM): 0.612
- relative viability (NCI-H522; first compound 0.253 µM): 0.676
- relative viability (NCI-H522; first compound 0.8 µM): 0.672
- relative viability (NCI-H522; first compound 2.53 µM): 0.58
- relative viability (NCI-H522; first compound 8 µM): 0.608
- relative viability (PC-3 [JPC-3]; first compound 0.253 µM): 1.12
- relative viability (PC-3 [JPC-3]; first compound 0.8 µM): 1.1
- relative viability (PC-3 [JPC-3]; first compound 2.53 µM): 1.32
- relative viability (PC-3 [JPC-3]; first compound 8 µM): 1.38
- relative viability (NCI-H1755; first compound 0.253 µM): 0.86
- relative viability (NCI-H1755; first compound 0.8 µM): 0.861
- relative viability (NCI-H1755; first compound 2.53 µM): 0.899
- relative viability (NCI-H1755; first compound 8 µM): 0.777
- relative viability (NCI-H520; first compound 0.253 µM): 0.368
- relative viability (NCI-H520; first compound 0.8 µM): 0.359
- relative viability (NCI-H520; first compound 2.53 µM): 0.375
- relative viability (NCI-H520; first compound 8 µM): 0.35
- relative viability (HCC-15; first compound 0.253 µM): 0.686
- relative viability (HCC-15; first compound 0.8 µM): 0.728
- relative viability (HCC-15; first compound 2.53 µM): 0.819
- relative viability (HCC-15; first compound 8 µM): 0.706
- relative viability (HOP-62; first compound 0.253 µM): 0.38
- relative viability (HOP-62; first compound 0.8 µM): 0.366
- relative viability (HOP-62; first compound 2.53 µM): 0.537
- relative viability (HOP-62; first compound 8 µM): 0.406
- relative viability (NCI-H1793; first compound 0.253 µM): 0.863
- relative viability (NCI-H1793; first compound 2.53 µM): 1.07
- relative viability (NCI-H1793; first compound 8 µM): 0.539
- relative viability (NCI-H1355; first compound 0.253 µM): 0.756
- relative viability (NCI-H1355; first compound 0.8 µM): 0.5
- relative viability (NCI-H1355; first compound 2.53 µM): 0.857
- relative viability (NCI-H1355; first compound 8 µM): 0.709
- relative viability (H3255; first compound 0.253 µM): 0.556
- relative viability (H3255; first compound 0.8 µM): 0.579
- relative viability (H3255; first compound 2.53 µM): 0.602
- relative viability (H3255; first compound 8 µM): 0.614
- relative viability (EKVX; first compound 0.253 µM): 0.776
- relative viability (EKVX; first compound 0.8 µM): 0.754
- relative viability (EKVX; first compound 2.53 µM): 0.87
- relative viability (EKVX; first compound 8 µM): 0.786
- relative viability (NCI-H322M; first compound 0.253 µM): 0.831
- relative viability (NCI-H322M; first compound 0.8 µM): 0.736
- relative viability (NCI-H322M; first compound 2.53 µM): 0.886
- relative viability (NCI-H322M; first compound 8 µM): 0.945
- relative viability (LCLC-103H; first compound 0.253 µM): 0.718
- relative viability (LCLC-103H; first compound 0.8 µM): 0.667
- relative viability (LCLC-103H; first compound 2.53 µM): 0.76
- relative viability (LCLC-103H; first compound 8 µM): 0.741
- relative viability (UMC-11; first compound 0.253 µM): 0.398
- relative viability (UMC-11; first compound 0.8 µM): 0.695
- relative viability (UMC-11; first compound 2.53 µM): 0.416
- relative viability (UMC-11; first compound 8 µM): 0.405
- relative viability (SK-LU-1; first compound 0.253 µM): 0.409
- relative viability (SK-LU-1; first compound 0.8 µM): 0.542
- relative viability (SK-LU-1; first compound 2.53 µM): 0.615
- relative viability (SK-LU-1; first compound 8 µM): 0.392
- relative viability (NCI-H2009; first compound 0.253 µM): 0.623
- relative viability (NCI-H2009; first compound 0.8 µM): 0.654
- relative viability (NCI-H2009; first compound 2.53 µM): 0.827
- relative viability (NCI-H2009; first compound 8 µM): 0.693
